Patent US12582666B2, “Low dose therapeutic treatment” (Syqe Medical Ltd., priority 2016, dated 2026)

Legend:
[1] = system: nausea of a patient undergoing chemotherapy; assay: FIG. 11: nausea of a chemotherapy patient treated with 0.5 mg inhaled THC doses; format: in vivo, human; conditions: first 0.5 mg THC dose 30 minutes before chemotherapy
Protocol: FIG. 11 is a graphical representation of the treatment effect achieved by pulmonary delivery of 0.5 mg THC doses, delivered at time intervals of at least two hours, according to some embodiments of the invention.
In this example, nausea levels of a patient undergoing chemotherapy are shown, as indicated by the arbitrary Y-axis scale. The black line depicts a typical nausea effect that is often witnessed when no special anti-nausea treatment is provided (optionally other than the conventional prophylactic treatment provided normally intravenously in chemotherapy sessions).
Chemotherapy commenced at 7:00 AM, as indicated by the black arrow. […] It may remain high when not treated or even with conventional treatment, although the degree of nausea may fluctuate.
The gray line depicts nausea levels under treatment with 0.5 mg doses of THC, delivered in intervals of at least two hours, indicated by the grey triangles. […] Two additional doses of 0.5 mg THC each, delivered at 12:30 and at 19:00, sufficed to allow the patient to combat the nausea throughout the day.

[2] = system: pain; assay: FIG. 10: pain treated with 0.5 mg inhaled THC doses at intervals of at least two hours; format: in vivo, human
Protocol: FIG. 10 is a graphical representation of a regimen for the treatment of pain by pulmonary delivery of 0.5 mg THC doses delivered in time intervals of at least two hours, according to some embodiments of the invention.
In this use over a time period of 16 hours, 4 doses of 0.5 mg THC each were provided at time intervals of at least two hours between sequential doses, indicated by the grey triangles. The black line represents the symptom level, in this case pain, and the grey line represents psychoactive effects.
The x-axis represents the time of day, and the y-axis represents an arbitrary scale for indicating symptom severity and level of psychoactivity. The scale represents, based on user reports, a grade of the symptoms and a grade of the psychoactive effects, for example compared to a baseline report collected from the patient before treatment.

[3] = cited from earlier work
[4] = system: CB1 and CB2 receptors; conditions: comparison of the two receptors; cited from earlier work
[5] = system: cancer patients suffering from advanced symptoms and/or side effects of chemotherapy; assay: Inventors' experiments: low dose inhaled THC, at least two hours between doses; format: in vivo, human
Protocol: It has been shown by inventors in experiments performed that an inhaled THC dose of 0.2-2 mg may provide sufficient symptom alleviation for a time period of at least 2 hours, at least 3 hours, at least 4 hours, at least 6 hours or intermediate or longer time periods. […] Other examples of symptoms which may be alleviated by prescribing a low dose regimen may include adverse effects of chemotherapy and/or vomiting and/or weight loss and/or insomnia and/or euphoria and/or drowsiness and/or psychomotor effects and/or cognitive effects, and/or agitation and/or depression.
Cancer patients suffering from advanced symptoms and/or side effects of chemotherapy were treated in accordance with the above described regimen, being delivered a dose of between 0.2-2 mg THC at a single delivery event and waiting at least two hours before the next dose. The patients voluntarily reported their conditions.
In a first case, a cancer patient was admitted to hospital for chemotherapy. They were previously prescribed cannabis for pain, vomiting, nausea and weight loss, which they took by smoking cigarettes. […] In the experiment, the patient was prescribed 3×0.5 mg THC per day, delivered using an inhaler device for example as described hereinabove. The first dose was to be taken 30 minutes before chemotherapy. The patient was allowed to take additional inhalations as needed. […] The patient inhaled the 3 prescribed doses only, and no other medication was prescribed or taken. Later, the same patient readmitted to hospital for an additional round of chemotherapy. This time they chose to inhale THC in four 0.5 mg doses, a first dose in the morning before chemotherapy, second and third doses taken concomitantly at midday (amounting to a single 1 mg dose) and a fourth dose in the evening.
In a second case, a cancer patient was admitted to the hospital for severe pain and in order to resume treatment that they chose to terminate earlier. They were previously prescribed cannabis for pain, cachexia and nausea, in addition to other drugs. Throughout the treatment, they received a continuous morphine drip (400-600 mg) with additional morphine treatment upon need. Before being hospitalized, they had not eaten for a week, suffered from sleep deprivation and was depressed. In the hospital they were provided with an inhaler for example as described hereinabove and during the first day of use they inhaled 0.5 mg THC doses 18 times a day, which included 4 previously prescribed doses of 0.5 mg and many demands for additional pain relief. On the next day they reduced the intake to 1 mg inhalations, 4 times a day, continuing for a period of 8 days.

[6] = molecular target: T1, 5-HT1A receptor (Homo sapiens, UniProt P08908); conditions: cited from earlier work
T1 sequence (P08908 1-422): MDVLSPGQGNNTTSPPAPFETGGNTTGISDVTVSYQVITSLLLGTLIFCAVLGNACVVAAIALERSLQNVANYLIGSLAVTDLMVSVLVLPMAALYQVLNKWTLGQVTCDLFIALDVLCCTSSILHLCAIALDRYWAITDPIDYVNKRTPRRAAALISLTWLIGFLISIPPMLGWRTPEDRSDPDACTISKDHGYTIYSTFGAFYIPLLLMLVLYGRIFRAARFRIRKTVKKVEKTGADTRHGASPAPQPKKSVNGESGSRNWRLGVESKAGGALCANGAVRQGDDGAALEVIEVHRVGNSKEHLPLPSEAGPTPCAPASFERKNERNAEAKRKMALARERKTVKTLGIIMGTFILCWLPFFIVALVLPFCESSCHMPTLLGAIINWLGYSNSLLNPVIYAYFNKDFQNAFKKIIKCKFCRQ

[7] = molecular target: GPR55 (Homo sapiens, UniProt Q9Y2T6); conditions: cited from earlier work
GPR55, sequence (Q9Y2T6 whole entry, species assumed): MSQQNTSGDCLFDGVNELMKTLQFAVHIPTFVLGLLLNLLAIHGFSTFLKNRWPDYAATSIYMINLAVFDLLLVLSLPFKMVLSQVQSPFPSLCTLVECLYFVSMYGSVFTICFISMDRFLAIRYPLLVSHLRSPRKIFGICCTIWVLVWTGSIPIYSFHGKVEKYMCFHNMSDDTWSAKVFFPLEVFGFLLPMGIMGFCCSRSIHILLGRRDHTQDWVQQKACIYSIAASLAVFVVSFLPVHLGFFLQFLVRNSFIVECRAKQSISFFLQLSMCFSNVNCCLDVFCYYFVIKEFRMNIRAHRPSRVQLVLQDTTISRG

[8] = single inhaled cannabis dose, Syqe Inhaler

Compound | maximum nausea level reached [1] | onset of nausea [1] | time after dose at which pain level begins to rise again ([2]; 0.5 mg THC inhaled) | pain level after first dose ([2]; 0.5 mg THC inhaled at 6:30, arbitrary scale from user reports) | psychoactivity after first dose ([2]; 0.5 mg THC inhaled, arbitrary scale from user reports) | Tmax±SD ([3]; single 15.1±0.1 mg dose of cannabis inhaled with Syqe Inhaler, eight patients) [min] | interindividual variability of Cmax [3, 8] [%] | plasma Cmax increase per mg Δ(9)-THC administered [3, 8] [ng/mL/mg THC] | affinity for the CB1 and CB2 receptors [4] | eating ([5]; cancer patient, 0.5 mg THC 18 times on first day, then 1 mg 4 times a day for 8 days, with morphine drip) | mood ([5]; cancer patient, 3×0.5 mg THC per day by inhaler) | mood ([5]; cancer patient, inhaled THC with morphine drip) | time period of sufficient symptom alleviation ([5]; inhaled THC dose of 0.2-2 mg) | treatment outcome in additional round of chemotherapy ([5]; same patient, four 0.5 mg inhaled THC doses) | action at 5-HT1A receptor [6] | action at GPR55 [7]
CCCCCc1cc(O)c2c(c1)OC(C)(C)[C@@H]1CCC(C)=C[C@@H]21 [THC, Δ9-tetrahydrocannabinol] | significant reduction in the maximum level reached | significant delay in the onset of nausea | about 2 hours | effective to dramatically reduce the pain level | A rise in psychoactivity occurs | 3 ± 1 | 25.3 | 12.3 | approximately equal affinity for the CB1 and CB2 receptors | ate 3 meals per day | significantly improved mood | significant mood improvement | at least 2 hours | effective | – | –
C=C(C)[C@@H]1CCC(C)=C[C@H]1c1c(O)cc(CCCCC)cc1O [CBD, Cannabidiol] | – | – | – | – | – | – | – | – | greater affinity for the CB2 receptor than for the CB1 receptor | – | – | – | – | – | 5-HT1A receptor agonist | antagonist
